Key:
EGFR = EGFR (Homo sapiens, UniProt P00533); experiment: Immunoprecipitation of EGF-R and immunoblotting for tyrosine phosphorylation in NCI-H292 cells; assay type: cell-based; set-up: These cells express EGF-R constitutively; endogenous in cells; host or cells: NCI-H292 (human pulmonary mucoepidermoid carcinoma); details: within 15 min of stimulus
Description: Immunoprecipitation for EGF-R Protein and Immunoblotting for Tyrosine Phosphorylation. Cells were serum-starved for 24 h and then stimulated with TGFα, H2O2, or the supernatant of activated neutrophils for 15 min. After stimulation, cells were lysed and incubated for 30 min in an orbital shaker at 4° C. To remove insoluble material, cell lysates were centrifuged at 14,000 rpm for 5 min at 4° C. Aliquots of supernatants containing equal amounts of protein were immunoprecipitated with anti-EGF receptor antibody (polyclonal, Ab4, Calbiochem) and 20 μl of protein A-agarose (Santa Cruz) for 2 h at 4° C. Precipitates were washed three times with 0.5 ml of lysis buffer, suspended in SDS sample buffer, and boiled for 5 min. Proteins were separated by SDS-PAGE in 8.0% acrylamide gel. The resulting gel was equilibrated in the transfer buffer: 25 mM Tris-HCl, 192 mM glycine, 20% (vol/vol) methanol, pH 8.3. The proteins were then transferred electrophoretically to nitrocellulose membranes (0.22 μm), blocked with 5% fat-free skimmed milk in PBS containing 0.05% Tween 20 overnight and then incubated with monoclonal anti-phosphotyrosine antibody (1:100,Santa Cruz) for 1 h. Bound antibody was visualized according to a standard protocol for the avidin-biotin-alkaline phosphatase complex method (ABC kit, Vector Laboratories).

NCI-H292 cells [1] = experiment: In situ hybridization for MUC5AC gene in NCI-H292 cells (Example 2); assay type: cell-based, human; details: within 12 h
Description: Cell Culture. NCI-H292 cells, a human pulmonary mucoepidermoid carcinoma cell line, were grown in RPMI 1640 medium containing 10% fetal bovine serum, penicillin (100 U/ml), streptomycin (100 μg/ml) and Hepes (25 mM) at 37° C. in a humidified 5% CO2, water-jacketed incubator. Either 6-well culture plates or 8-chamber slides were used to culture the cells. When confluent, cells were incubated for 1 h with neutrophils (10^6 cells/ml) alone, TNFα alone (recombinant human TNFα, 20 ng/ml, Genzyme, Cambridge, Mass.), IL-8 (recombinant human IL-8, 10^−8 M, Genzyme) alone, fMLP (10^−8 M, Sigma, St. Louis, Mo.) alone, TNFα plus neutrophils, IL-8 plus neutrophils, fMLP plus neutrophils, hydrogen peroxide (H2O2, 200 μM), cigarette smoke solution or TGFα (recombinant human TGFα, 0.1-25 ng/ml, Calbiochem, San Diego, Calif.). The cells were then washed and incubated with fresh medium alone. Experiments were terminated at preselected times (for mRNA, 6 h and 12 h; for protein, 24 h). As controls, cells were incubated with medium alone for same time periods. […] NCI-H292 cells were incubated for 1 h with either neutrophils that had been incubated with TNFα (20 ng/ml) for 1 h and then washed with sterile PBS to avoid contamination with the supernatant (e.g., molecules released from neutrophils), or the NCI-H292 cells were incubated with supernatant only. […]

NCI-H292 cells [2] = experiment: Immunoassay of MUC5AC protein in NCI-H292 cells (Example 2); assay type: cell-based, human
Description: Cell Culture. NCI-H292 cells, a human pulmonary mucoepidermoid carcinoma cell line, were grown in RPMI 1640 medium containing 10% fetal bovine serum, penicillin (100 U/ml), streptomycin (100 μg/ml) and Hepes (25 mM) at 37° C. in a humidified 5% CO2, water-jacketed incubator. Either 6-well culture plates or 8-chamber slides were used to culture the cells. […] The cells were then washed and incubated with fresh medium alone. Experiments were terminated at preselected times (for mRNA, 6 h and 12 h; for protein, 24 h). As controls, cells were incubated with medium alone for same time periods. […] In inhibition studies with blocking antibodies to EGF-R ligands, the supernatants were pretreated with anti-TGFα antibody (Calbiochem) or anti-EGF antibody for 30 min and then added to NCI-H292 cells. The role of oxygen free radicals was examined using scavengers of oxygen free radical DMSO (1%, Sigma), 1,3-dimethyl-2-thiourea (DMTU, 50 mM, Sigma), or superoxide dismutase (SOD, 300 U/ml, Sigma).
Preparation of Cigarette Smoke Solution. Research cigarettes (code2R1, produced for the University of Kentucky Tobacco and Health Research Foundation) were used in the study. Cigarette smoke solution was prepared as previously described (Dusser et al. (1989) J. Clin. Invest. 84:900-906). In brief, cigarette smoke was withdrawn into a polypropylene syringe (35 ml) at a rate of one puff/min (10 times) and bubbled slowly into 20 ml of RPM11640 containing 50 mM Hepes buffer. The smoke solution was then titrated to pH 7,4 and used immediately after preparation.
Immunoassay of MUC5AC Protein. MUC5AC protein was measured as described above. In brief, cell lysates were prepared with PBS at multiple dilutions, and 50 μl of each sample was incubated with bicarbonate-carbonate buffer (50 μl) at 40° C. in a 96-well plate (Maxisorp Nunc, Fisher Scientific, Santa Clara, Calif.), until dry. Plates were washed three times with PBS and blocked with 2% BSA (fraction V, Sigma) for 1 h at room temperature. Plates were again washed three times with PBS and then incubated with 50 μl of mouse monoclonal MUC5AC antibody (1:100) that was diluted with PBS containing 0.05% Tween 20. After 1 h, the wells were washed three times with PBS, and 100 μl horseradish peroxidase-goat anti-mouse IgG conjugate (1:10,000, Sigma) was dispensed into each well. After 1 h, plates were washed three times with PBS. Color reaction was developed with TMB peroxidase solution (Kirkegaard & Perry Laboratories, Gaithersburg, Md.) and stopped with 2N H2SO4. Absorbance was read at 450 nm.

NCI-H292 cells [3] = experiment: Northern analysis for MUC5 gene expression in NCI-H292 cells; assay type: cell-based, human; details: EGF or TGFα 25 ng/ml, TNFα 20 ng/ml; 12 h, 24 h
Description: (§1) Cell culture. A human pulmonary mucoepidermoid carcinoma cell line, NCI-H292 cells, were grown in RPMI11640 medium containing 10% fetal bovine serum, penicillin (100 U/ml), streptomycin (100 μg/ml) at 37° C. in a humidified 5% CO2 water-jacketed incubator. […] In inhibition studies with an EGF-R tyrosine kinase inhibitor, BIBX1522 (10 μg/ml, generously provided by Boehringer Ingelheim Inc., Ingelheim, Germany), cells were pretreated with BIBX1522 30 min before adding growth factors. After incubation, cells grown in a T-75 flask were used for total RNA extraction or protein extraction, and 8-chamber slides were used for Alcian blue/PAS-staining to visualize mucins.

NCI-H292 cells [4] = experiment: Alcian blue/PAS staining of NCI-H292 cells for mucin glycoproteins; assay type: cell-based, human; details: TNFα 20 ng/ml; EGF, TGFα each 25 ng/ml
Description: as §1

pathogen-free rats = experiment: Goblet cell production in pathogen-free rats after tracheal instillation of TNFα and EGF-R ligands; assay type: in vivo, rat; details: intratracheal 600 ng, alone
Description: Healthy rats. Rats were anesthetized with methohexital sodium (Brevital sodium, 50 mg/kg, i.p.; Eli Lilly & Co., Indianapolis, Ind.) and allowed to breathe spontaneously. […] In each study, sterile PBS (100 μl) was instilled into the trachea as control. […] Rats were pretreated with BIBX1522 (3, 10 or 30 mg/kg, i.p.), 1 h before and 24 h after instillation of TGFα. The trachea and lungs were removed for examination 48 h after the instillation of TGFα.
Tissue preparation. At preselected times during anesthesia, the systemic circulation was perfused with 1% paraformaldehyde in DEPC-treated PBS at a pressure of 120 mmHg. The trachea was then removed and placed in 4% paraformaldehyde for 24 h. After fixation, trachea and lungs were embedded in either JB-4 plus monomer solution A for cell analysis or O.C.T. compound (Sakura Finetek U.S.A., Inc., Torrance, Calif.) for immunohistochemistry and in situ hybridization. The embedded tissues were cut as cross sections ([…] thick) and placed on slides.
Cell analysis. We counted the total number of epithelial cells by counting epithelial cell nuclei over 2 mm of the basal lamina with an oil immersion objective lens (×1000 magnification). The linear length of the basal lamina under each analyzed region of epithelium was determined by tracing the contour of the digitized image of the basal lamina. After instillation of stimuli, “developing” goblet cells form. These cells have Alcian blue/PAS-positive granules, but the size of granules is small, and the number of cytoplasmic granules is few. We call these “developing” goblet cells “pre-goblet cells”, a stage before cells become mature goblet cells. Goblet cells are tall, cuboidal, goblet to low columnar in shape, with abundant Alcian blue/PAS-stained granules filling most of the cytoplasm between the nucleus and the luminal surface. Pre-goblet cells are defined as cells with smaller mucus-stained areas (<1/3 height in epithelium from basement membrane to luminal surface) or with sparsely and lightly Alcian blue/PAS-stained, small granules. Ciliated cells are recognized by their ciliated borders, lightly stained cytoplasm, and large round nuclei. Non-granulated secretory cells are columnar in shape and extend from the lumen to the basal lamina. The cytoplasm stains light pink color, and a few tiny PAS-positive and Alcian blue-negative granules are observed in the cytoplasm. Basal cells are small flattened cells with a large nucleus, located just above the basal lamina but not reaching the airway lumen.
Quantification of goblet cell production. Goblet cell production, was determined by the volume density of Alcian blue/PAS-stained mucosubstances on the mucosal surface epithelium using a semi-automatic imaging system described elsewhere (Weber et al. (1984) Science 224:294-297). We measured the Alcian blue/PAS-positive stained area and the total epithelial area and expressed the data as the percentage of the total area stained by Alcian blue-PAS. The analysis was performed with the public domain NIH Image program (developed at the U.S. National Institute of Health and available from the Internet by anonymous FTP from zippy.nimh.gov or on floppy disk from the National Technical Information Service, Springfield, Va., part number PB95-500195GEI).
Immunohistochemical localization of EGF-R in rat epithelium. The localization of EGF-R was examined using immunchistochemical staining with an antibody to EGF-R (Calbiochem, San Diego, Calif.) in frozen sections of rat trachea. After perfusion with 1% paraformaldehyde in PBS, tissues were placed in 4% paraformaldehyde in PBS for 1 h and then removed in 30% sucrose for cryoprotection overnight. Tracheas were embedded in O.C.T. compound (Sakura Finetek U.S.A., Inc., Torrance, Calif.) and frozen. Frozen sections (5 μm) were cut and placed on glass slides (Superfrost Plus, Fisher Scientific, Pittsburgh, Pa.). Immunostaining was performed similarly to the in vitro studies.

EGFR, sequence (P00533 25-1210): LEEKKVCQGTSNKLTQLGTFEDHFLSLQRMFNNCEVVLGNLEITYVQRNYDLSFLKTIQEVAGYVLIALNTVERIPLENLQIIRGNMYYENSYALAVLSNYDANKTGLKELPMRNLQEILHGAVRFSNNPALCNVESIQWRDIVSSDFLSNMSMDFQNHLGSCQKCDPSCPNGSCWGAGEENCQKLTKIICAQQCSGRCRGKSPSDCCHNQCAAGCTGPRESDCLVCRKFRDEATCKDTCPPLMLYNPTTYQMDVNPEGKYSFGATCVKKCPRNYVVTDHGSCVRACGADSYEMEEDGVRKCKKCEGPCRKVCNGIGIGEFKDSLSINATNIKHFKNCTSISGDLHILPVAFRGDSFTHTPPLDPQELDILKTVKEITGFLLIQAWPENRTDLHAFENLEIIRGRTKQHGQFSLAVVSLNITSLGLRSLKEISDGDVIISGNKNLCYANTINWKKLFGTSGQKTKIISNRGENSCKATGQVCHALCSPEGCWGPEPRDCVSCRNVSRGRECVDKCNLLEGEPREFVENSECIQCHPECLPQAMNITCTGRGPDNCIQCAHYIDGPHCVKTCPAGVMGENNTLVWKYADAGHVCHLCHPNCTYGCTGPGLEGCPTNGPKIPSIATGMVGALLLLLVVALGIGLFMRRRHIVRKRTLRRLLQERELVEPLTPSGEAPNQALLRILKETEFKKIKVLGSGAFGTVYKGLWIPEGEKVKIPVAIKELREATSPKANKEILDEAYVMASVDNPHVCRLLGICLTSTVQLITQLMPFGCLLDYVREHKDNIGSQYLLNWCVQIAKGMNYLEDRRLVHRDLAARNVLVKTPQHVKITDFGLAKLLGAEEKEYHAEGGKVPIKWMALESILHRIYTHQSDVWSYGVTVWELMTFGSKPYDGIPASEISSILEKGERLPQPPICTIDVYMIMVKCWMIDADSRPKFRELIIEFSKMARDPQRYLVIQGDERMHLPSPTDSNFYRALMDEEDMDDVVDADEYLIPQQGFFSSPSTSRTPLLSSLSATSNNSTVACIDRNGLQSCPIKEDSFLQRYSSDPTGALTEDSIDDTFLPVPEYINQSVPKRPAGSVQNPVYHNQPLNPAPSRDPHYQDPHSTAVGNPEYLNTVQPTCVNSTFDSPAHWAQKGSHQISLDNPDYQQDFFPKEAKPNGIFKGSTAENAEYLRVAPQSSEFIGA

Molecule | EGF-R-specific tyrosine phosphorylation (EGFR) | MUC5AC gene expression (NCI-H292 cells [1]) | maximum response in MUC5AC synthesis relative to the response to TGFα (NCI-H292 cells [2]) | MUC5AC synthesis in NCI-H292 cells, stimulus alone (NCI-H292 cells [2]; H2O2 200 μM, cigarette smoke solution) | MUC5 gene expression on incubation with mediator (NCI-H292 cells [3]) | PAS-positive staining on incubation with mediator (NCI-H292 cells [4]) | epithelial production of mucous glycoconjugates (pathogen-free rats)
OO [H2O2, hydrogen peroxide] | induced EGF-R-specific tyrosine phosphorylation | up-regulated | half | caused MUC5AC synthesis | – | – | –
EGF: recombinant human epidermal growth factor (Genzyme) | – | – | – | – | clearly expressed at 24 h | increased PAS-positive staining | had no effect

From patent US7531500B2, “Preventing airway mucus production by administration of EGF-R antagonists” (The Regents of the University of California, priority 1998, dated 2009)
